# From patent US9149038B2, “4-amino-6-(heterocyclic)picolinates and 6-amino-2-(heterocyclic)pyrimidine-4-carboxylates and their use as herbicides” (Dow AgroSciences LLC, priority 2013, dated 2015)
# Where two headings read alike, the source gives them in different places.
# System: Wheat and Barley and weed species
# Test: Post-Emergent Test III: postemergent herbicidal activity in wheat and barley, visual rating after 21 d and probit GR20/GR50/GR80/GR90 (Tables 9-13)
# Type: in vivo
# Conditions: for pest or weed control at 35 g/ha / pest or weed control at 70 g/ha / pest or weed control at 140 g/ha: post-emergence, 504 h
# Outline: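 Greenhouse plants (~18/17 °C, 14 h photoperiod) at second–third true leaf stage sprayed at 187 L/ha with a high rate and ½× to 1/16× serial dilutions. Visual injury 0–100% versus solvent-blank controls scored at 21 d; GR20, GR50, GR80 and GR90 derived by probit analysis across rates.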
smiles,measurement,setting,value
Nc1cc(-c2cc3c(cc2F)OC(F)(F)O3)nc(C(=O)O)c1Cl [Compound 42],GR50 ALOMY,"ALOMY black-grass (Alopecurus myosuroides), growth reduction of 50%, probit analysis",11 g ai/ha
same,GR80 ALOMY,"ALOMY black-grass (Alopecurus myosuroides), growth reduction of 80%, probit analysis",25 g ai/ha
same,GR90 ALOMY,"ALOMY black-grass (Alopecurus myosuroides), growth reduction of 90%, probit analysis",40 g ai/ha
same,GR50 APESV,"APESV bentgrass (Apera spica-venti), growth reduction of 50%, probit analysis",22 g ai/ha
same,GR80 APESV,"APESV bentgrass (Apera spica-venti), growth reduction of 80%, probit analysis",81 g ai/ha
same,GR90 APESV,"APESV bentgrass (Apera spica-venti), growth reduction of 90%, probit analysis",>140 g ai/ha
same,GR20 HORVS,"HORVS barley, spring (crop), growth reduction of 20%, probit analysis",0.50 g ai/ha
same,pest or weed control at 35 g/ha,"Hordeum vulgare, HORVS barley, spring (crop), 35 g ai/ha, read-out: Visual Growth Reduction (%) 21 Days After Application HORVS",75 to 84%
same,pest or weed control at 70 g/ha,"Hordeum vulgare, HORVS barley, spring (crop), 70 g ai/ha, read-out: Visual Growth Reduction (%) 21 Days After Application HORVS",85 to 94%
same,pest or weed control at 140 g/ha,"Hordeum vulgare, HORVS barley, spring (crop), 140 g ai/ha, read-out: Visual Growth Reduction (%) 21 Days After Application HORVS",85 to 94%
same,Visual Growth Reduction (%) 21 Days After Application KCHSC,"KCHSC kochia (Kochia scoparia), 35 g ai/ha",E (45-59)
same,Visual Growth Reduction (%) 21 Days After Application KCHSC,"KCHSC kochia (Kochia scoparia), 70 g ai/ha",E (45-59)
same,Visual Growth Reduction (%) 21 Days After Application KCHSC,"KCHSC kochia (Kochia scoparia), 140 g ai/ha",D (60-74)
same,GR50 KCHSC,"KCHSC kochia (Kochia scoparia), growth reduction of 50%, probit analysis",54 g ai/ha
same,GR80 KCHSC,"KCHSC kochia (Kochia scoparia), growth reduction of 80%, probit analysis",>140 g ai/ha
same,GR90 KCHSC,"KCHSC kochia (Kochia scoparia), growth reduction of 90%, probit analysis",>140 g ai/ha
same,GR50 LOLSS,"LOLSS ryegrass, growth reduction of 50%, probit analysis",44 g ai/ha
same,GR80 LOLSS,"LOLSS ryegrass, growth reduction of 80%, probit analysis",>140 g ai/ha
same,GR90 LOLSS,"LOLSS ryegrass, growth reduction of 90%, probit analysis",>140 g ai/ha
same,GR50 SETVI,"SETVI green foxtail (Setaria viridis), growth reduction of 50%, probit analysis",10 g ai/ha
same,GR80 SETVI,"SETVI green foxtail (Setaria viridis), growth reduction of 80%, probit analysis",46 g ai/ha
same,GR90 SETVI,"SETVI green foxtail (Setaria viridis), growth reduction of 90%, probit analysis",>140 g ai/ha
same,GR20 TRZAS,"TRZAS wheat, spring (crop), growth reduction of 20%, probit analysis",0.20 g ai/ha
same,pest or weed control at 35 g/ha,"Triticum aestivum, TRZAS wheat, spring (crop), 35 g ai/ha, read-out: Visual Growth Reduction (%) 21 Days After Application TRZAS",75 to 84%
same,pest or weed control at 70 g/ha,"Triticum aestivum, TRZAS wheat, spring (crop), 70 g ai/ha, read-out: Visual Growth Reduction (%) 21 Days After Application TRZAS",75 to 84%
same,pest or weed control at 140 g/ha,"Triticum aestivum, TRZAS wheat, spring (crop), 140 g ai/ha, read-out: Visual Growth Reduction (%) 21 Days After Application TRZAS",85 to 94%
same,pest or weed control at 35 g/ha,"ALOMY black-grass (Alopecurus myosuroides), 35 g ai/ha, read-out: Visual Growth Reduction (%) 21 Days After Application ALOMY",85 to 94%
same,pest or weed control at 70 g/ha,"ALOMY black-grass (Alopecurus myosuroides), 70 g ai/ha, read-out: Visual Growth Reduction (%) 21 Days After Application ALOMY",95 to 100%
same,pest or weed control at 140 g/ha,"ALOMY black-grass (Alopecurus myosuroides), 140 g ai/ha, read-out: Visual Growth Reduction (%) 21 Days After Application ALOMY",95 to 100%
same,pest or weed control at 35 g/ha,"APESV bentgrass (Apera spica-venti), 35 g ai/ha, read-out: Visual Growth Reduction (%) 21 Days After Application APESV",60 to 74%
same,pest or weed control at 70 g/ha,"APESV bentgrass (Apera spica-venti), 70 g ai/ha, read-out: Visual Growth Reduction (%) 21 Days After Application APESV",75 to 84%
same,pest or weed control at 140 g/ha,"APESV bentgrass (Apera spica-venti), 140 g ai/ha, read-out: Visual Growth Reduction (%) 21 Days After Application APESV",85 to 94%
same,pest or weed control at 35 g/ha,"LOLSS ryegrass, 35 g ai/ha, read-out: Visual Growth Reduction (%) 21 Days After Application LOLSS",45 to 59%
same,pest or weed control at 70 g/ha,"LOLSS ryegrass, 70 g ai/ha, read-out: Visual Growth Reduction (%) 21 Days After Application LOLSS",60 to 74%
same,pest or weed control at 140 g/ha,"LOLSS ryegrass, 140 g ai/ha, read-out: Visual Growth Reduction (%) 21 Days After Application LOLSS",60 to 74%
same,pest or weed control at 35 g/ha,"SETVI green foxtail (Setaria viridis), 35 g ai/ha, read-out: Visual Growth Reduction (%) 21 Days After Application SETVI",75 to 84%
same,pest or weed control at 70 g/ha,"SETVI green foxtail (Setaria viridis), 70 g ai/ha, read-out: Visual Growth Reduction (%) 21 Days After Application SETVI",85 to 94%
same,pest or weed control at 140 g/ha,"SETVI green foxtail (Setaria viridis), 140 g ai/ha, read-out: Visual Growth Reduction (%) 21 Days After Application SETVI",95 to 100%
